This passage reports THT assay Lag time (Ex. 76) results from patent US9474790B2, “Stable, protracted GLP-1/glucagon receptor co-agonists for medical use” (Novo Nordisk A/S, priority 2013, dated 2016).

SMILES strings stand for the structures. Numbered stars: 1 amine (or outer) side, 2 acyl side, 3 side chain; on linkers, the order of the positions; unused ones are H or OH. Square brackets hold non-standard residues; d marks the D form. Side chains are listed from the residue outwards. Peptide text beside a SMILES is read from it. * marks the point of attachment. C18 diacid = O=C(O)CCCCCCCCCCCCCCCCC(=O)*; γGlu = O=C(O)[C@H](CCC(=O)[*:2])N[*:1]; AEEA = NCCOCCOCC(=O)O; Aib = CC(C)(N)C(=O)O

The data set is described as follows: Thioflavin T (ThT) fibrillation assay for physical stability. Type of data set: physicochemical. The note with it: 250 μM in 10 mM HEPES buffer, pH 7.5, 37° C., shaking 960 rpm. The source says:
The purpose of this assay was to assess the physical stability of the glucagon derivatives of the invention in aqueous solutions.
Low physical stability of a peptide may lead to amyloid fibril formation, which is observed as well-ordered, thread-like macromolecular structures in the sample, which eventually may lead to gel formation. This has traditionally been measured by visual inspection of the sample. However, that kind of measurement is very subjective and depending on the observer. Therefore, the application of a small molecule indicator probe is much more advantageous. Thioflavin T (ThT) is such a probe and has a distinct fluorescence signature when binding to fibrils [Naiki et al; Anal. Biochem. 1989 177 244-249; LeVine; Methods. Enzymol. 1999 309 274-284].
The time course for fibril formation can be described by a sigmoidal curve with the following expression [Nielsen et al; Biochemistry 2001 40 6036-6046]:
Here, as depicted in FIG. 1, F is the ThT fluorescence at the time t. The constant t0 is the time needed to reach 50% of maximum fluorescence. The two important parameters describing fibril formation are the lag-time calculated by t0−2τ and the apparent rate constant kapp 1/τ.
Samples were prepared freshly before each assay. Each sample composition is described in the legends. The pH of the sample was adjusted to the desired value using appropriate amounts of concentrated NaOH and HCl. Thioflavin T was added to the samples from a stock solution in H2O to a final concentration of 1 μM.
Sample aliquots of 200 μl (250 μM of the glucagon derivative/analogue in 10 mM HEPES buffer, pH 7.5) were placed in a 96 well microtiter plate (Packard OptiPlate™-96, white polystyrene). Usually, four or eight replica of each sample (corresponding to one test condition) were placed in one column of wells. The plate was sealed with Scotch Pad (Qiagen).
Incubation at given temperature, shaking and measurement of the ThT fluorescence emission were done in a Fluoroskan Ascent FL fluorescence plate reader (Thermo Labsystems). The temperature was set to 37° C. and the plate was incubated with orbital shaking adjusted to 960 rpm with an amplitude of 1 mm. Fluorescence measurement was done using excitation through a 444 nm filter and measurement of emission through a 485 nm filter.
Each run was initiated by incubating the plate at the assay temperature for 10 min. The plate was measured every 20 minutes for a desired period of time. Between each measurement, the plate was shaken and heated as described.
After completion of the ThT assay the four or eight replica of each sample was pooled and centrifuged at 20000 rpm for 30 minutes at 18° C. The supernatant was filtered through a 0.22 μm filter and an aliquot was transferred to a HPLC vial.
The concentration of peptide in the initial sample and in the filtered supernatant was determined by reverse phase HPLC using an appropriate standard as reference. The percentage fraction the concentration of the filtered sample constituted of the initial sample concentration was reported as the recovery.
The measurement points were saved in Microsoft Excel format for further processing and curve drawing and fitting was performed using GraphPad Prism. The background emission from ThT in the absence of fibrils was negligible. The data points were typically a mean of four or eight samples.
The data set may be fitted to Eq. (1).
`CC(C)C[C@H](NC(=O)[C@H](Cc1ccc(O)cc1)NC(=O)[C@H](CCCCN)NC(=O)[C@H](CO)NC(=O)[C@H](CC(C)C)NC(=O)[C@H](CC(=O)O)NC(=O)[C@H](CO)NC(=O)[C@@H](NC(=O)[C@H](Cc1ccccc1)NC(=O)[C@@H](NC(=O)CNC(=O)[C@H](CCC(N)=O)NC(=O)C(C)(C)NC(=O)[C@@H](N)Cc1c[nH]cn1)[C@@H](C)O)[C@@H](C)O)C(=O)N[C@@H](CC(=O)O)C(=O)N[C@@H](CCCCNC(=O)CC[C@H](NC(=O)CC[C@H](NC(=O)COCCOCCNC(=O)COCCOCCNC(=O)CC[C@H](NC(=O)CCCCCCCCCCCCCCCCC(=O)O)C(=O)O)C(=O)O)C(=O)O)C(=O)N[C@@H](CCCCN)C(=O)N[C@@H](CCCNC(=N)N)C(=O)N[C@@H](C)C(=O)N[C@@H](CCC(N)=O)C(=O)N[C@@H](CCC(=O)O)C(=O)N[C@@H](Cc1ccccc1)C(=O)N[C@H](C(=O)N[C@@H](CCC(N)=O)C(=O)N[C@@H](Cc1c[nH]c2ccccc12)C(=O)N[C@@H](CC(C)C)C(=O)N[C@@H](CC(C)C)C(=O)N[C@@H](CC(N)=O)C(=O)N[C@H](C(N)=O)[C@@H](C)O)C(C)C` [Example 7, N^ε16-[(4S)-4-carboxy-4-[[(4S)-4-carboxy-4-[[2-[2-[2-[[2-[2-[2-[[(4S)-4-carboxy-4-(17-carboxyheptadecanoylamino)butanoyl]amino]ethoxy]ethoxy]acetyl]amino]ethoxy]ethoxy]acetyl]amino]butanoyl]amino]butanoyl]-[Aib2,Leu10,Lys16,Lys17,Glu21,Leu27]-Glucagon amide] (H-H[Aib]QGTFTSDLSKYLDK([γGlu-γGlu-AEEA-AEEA-γGlu-C18 diacid])KRAQEFVQWLLNT-NH2; N-terminus assumed) yielded a THT assay Lag time (Ex. 76) of 45 h.

`CC(C)C[C@H](NC(=O)[C@H](Cc1c[nH]c2ccccc12)NC(=O)[C@H](C)NC(=O)[C@@H](NC(=O)[C@H](Cc1ccccc1)NC(=O)[C@H](CCC(=O)O)NC(=O)[C@H](CCCNC(=N)N)NC(=O)[C@H](C)NC(=O)[C@H](C)NC(=O)[C@H](CCCNC(=N)N)NC(=O)[C@H](CCCCNC(=O)CC[C@H](NC(=O)CC[C@H](NC(=O)COCCOCCNC(=O)COCCOCCNC(=O)CC[C@H](NC(=O)CCCCCCCCCCCCCCCCC(=O)O)C(=O)O)C(=O)O)C(=O)O)NC(=O)[C@H](CC(=O)O)NC(=O)[C@H](CC(C)C)NC(=O)[C@H](Cc1ccc(O)cc1)NC(=O)[C@H](CCCCN)NC(=O)[C@H](CO)NC(=O)[C@H](CC(C)C)NC(=O)[C@H](CC(=O)O)NC(=O)[C@H](CO)NC(=O)[C@@H](NC(=O)[C@H](Cc1ccccc1)NC(=O)[C@@H](NC(=O)CNC(=O)[C@H](CCC(N)=O)NC(=O)C(C)(C)NC(=O)[C@@H](N)Cc1c[nH]cn1)[C@@H](C)O)[C@@H](C)O)C(C)C)C(=O)N[C@@H](CC(C)C)C(=O)N[C@@H](CC(N)=O)C(=O)N[C@H](C(N)=O)[C@@H](C)O` [Example 18, N^ε29-[(4S)-4-carboxy-4-[[(4S)-4-carboxy-4-[[2-[2-[2-[[2-[2-[2-[[(4S)-4-carboxy-4-(17-carboxyheptadecanoylamino)butanoyl]amino]ethoxy]ethoxy]acetyl]amino]ethoxy]ethoxy]acetyl]amino]butanoyl]amino]butanoyl]-[Aib2,Leu10,Lys16,Ala18,Arg20,Glu21,Ala-24,Leu27]-Glucagon amide] (H-H[Aib]QGTFTSDLSKYLDK([γGlu-γGlu-AEEA-AEEA-γGlu-C18 diacid])RAAREFVAWLLNT-NH2; N-terminus assumed): the THT assay Lag time (Ex. 76) worked out at 45 h.

The compound `CC(C)C[C@H](NC(=O)[C@H](Cc1c[nH]c2ccccc12)NC(=O)[C@H](C)NC(=O)[C@@H](NC(=O)[C@H](Cc1ccccc1)NC(=O)[C@H](CCC(=O)O)NC(=O)[C@H](CCCNC(=N)N)NC(=O)[C@H](C)NC(=O)[C@H](CCCNC(=N)N)NC(=O)[C@H](CCCNC(=N)N)NC(=O)[C@H](CCCCNC(=O)CC[C@H](NC(=O)COCCOCCNC(=O)COCCOCCNC(=O)CC[C@H](NC(=O)CC[C@H](NC(=O)CCCCCCCCCCCCCCCCC(=O)O)C(=O)O)C(=O)O)C(=O)O)NC(=O)[C@H](CCC(=O)O)NC(=O)[C@H](CC(C)C)NC(=O)[C@H](Cc1ccc(O)cc1)NC(=O)[C@H](CCCCN)NC(=O)[C@H](CO)NC(=O)[C@H](CC(C)C)NC(=O)[C@H](CC(=O)O)NC(=O)[C@H](CO)NC(=O)[C@@H](NC(=O)[C@H](Cc1ccccc1)NC(=O)[C@@H](NC(=O)CNC(=O)[C@H](Cc1c[nH]cn1)NC(=O)C(C)(C)NC(=O)[C@@H](N)Cc1c[nH]cn1)[C@@H](C)O)[C@@H](C)O)C(C)C)C(=O)N[C@@H](CC(C)C)C(=O)N[C@@H](CO)C(=O)N[C@H](C(N)=O)[C@@H](C)O` [Example 32, N^ε16-[(4S)-4-carboxy-4-[[2-[2-[2-[[2-[2-[2-[[(4S)-4-carboxy-4-[[(4S)-4-carboxy-4-(17-carboxyheptadecanoylamino)butanoyl]amino]butanoyl]amino]ethoxy]ethoxy]acetyl]amino]ethoxy]ethoxy]acetyl]amino]butanoyl]-[Aib2,His3,Leu10,Glu15,Lys16,Arg20,Glu21,Ala24, Leu27,Ser28]-Glucagon amide] (H-H[Aib]HGTFTSDLSKYLEK([γGlu-AEEA-AEEA-γGlu-γGlu-C18 diacid])RRAREFVAWLLST-NH2; N-terminus assumed) registered a THT assay Lag time (Ex. 76) of 45 h.
